# Reference: US5095037A, “Combined anti-inflammatory agent” (Nissho Corporation, priority 1989, dated 1992)
# Legend:
# [1] = system: movable range of joint (right knee); assay: Test Example 7: inhibition of the damage to the movable range of joint, fixed right knee (Table 8); format: in vivo, Rabbits (New Zealand White); settings: articular cavity; for curative effect (in words): Table 8; for Inhibitory rate (damage to the movable range of joint): dose 3.0 mg/kg, once per three days, one month, single agent
# Procedure: Rabbits (New Zealand White) weighing about 2 kg were preliminarily bred for not less than one week and healthy ones were selected (3 rabbits per group). The joint of right knee of each rabbit was fixed by applying a splint thereto and further completely fixed not so as to move by putting it in plaster. Then the rabbits were bred normally for one month.
# During the normal breading, a 1% solution of each test agent shown in Table 8 was administered using an injection needle of gauge No. 27 into the articular cavity of each rabbit except those of the control group in a dose of 0.3 ml/kg body weight once per three days.
# One day after the last administration, the splint and the plaster were removed and the movable range of the joint was measured with a protractor under anesthesia with Nembutal (trademark). The rate of inhibition of the damage to the movable range of joint with respect to each test agent was calculated from the obtained measurements and the curative effect was evaluated.
# The rate of inhibition of the damage to the movable range of joint was calculated according to the following formula (IV), and the evaluation of synergistic effect was conducted under the same condition as in Test Example 1. [formula] MCJV: Average movable range of joint with respect to the rabbits of the […] group
# MTJV: Average movable range of joint with respect to the rabbits of the […] group
# [2] = system: carrageenan-induced edema; assay: Test Example 6: prolonged inhibitory effect on carrageenan-induced edema, agent 16 h before carrageenan (Table 7); format: in vivo, Wister male rats
# Procedure: (§1) The measurement of the volume was carried out according to the method of Fujimura et al. (see Iyakuhin Kaihatsu Kisokoza, Vol. 6, "Yakubutsu no Hyoka (1)" editted by Tsuda and Nogami, p 239-282, Kabushiki Kaisha Chizin-sha, 1971).
# (§2) The rate of inhibition (%) of the edema of the foot pad of each rat was calculated according to the following formula (III). [formula] MCEV: Average swollen rate of the foot pad 4 hours after the administration of carrageenan in the control group
# (§3) MTEV: Average swollen rate of the foot pad 4 hours after the administration of carrageenan in the drug-given group [formula] CEV: Volume of foot pad of each rat before the administration of carrageenan
# (§4) TEV: Volume of foot pad of each rat 4 hours after the administration of carrageenan
# (§5) With respect to each agent, the evaluation of the inhibitory effect on edema was carried out according to the following criteria: Synergistic effect was observed:
# (§6) Very great HA % + DG % ≤ ED %
# (§7) Great TD % ≤ ED % < HA % + DG %
# (§8) Small MD % < ED % < TD %
# (§9) No synergistic effect was observed:
# (§10) HA % : Inhibitory rate by the administration of sodium hyaluronate alone
# (§11) DG % : Inhibitory rate by the administration of the anti-inflammatory agent alone
# (§12) ED % : Inhibitory rate by the administration of the combined agent
# (§13) MD % : {The greater one between HA % and DG %} × 1.2
# (§14) TD % : HA % + DG % (1--HA %/100)
# (§15) Wister male rats weighing 240 to 260 g (6 weeks old) were preliminarily bred for not less than 1 week. Eight rats were used in one group. A 1% solution of each test agent shown in Table 7 was administered subcutaneously into the right foot pad of each rat. Sixteen hours after the administration, a 1% solution of carrageenan was administered subcutaneously as an irritating agent into the right foot pad of each rat in a dose of 0.1 ml/animal. The volume of the right foot pad was measured before and 4 hours after the administration of carrageenen. Then, the inhibitory effect on edema was evaluated in the same way as in Test Example 1.
# [3] = system: carrageenan-induced edema; assay: Test Example 1: inhibitory effect on carrageenan-induced edema, foot pad, agent 6 h before carrageenan (Table 2); format: in vivo, Wister male rats
# Procedure: The inhibitory effect on carrageenan-induced edema was investigated as to combined agents of sodium hyaluronate (molecular weight: 8 ×10^5) and various anti-inflammatory agents.
# Wister male rats weighing 240 to 260 g (6 weeks old) were preliminarily bred for not less than 1 week. Eight rats were used in one group. Each test agent shown in Table 2 was dissolved or suspended in an isotonic phosphate buffer solution (pH 7.0) to give a 1% solution or suspension (hereinafter referred to as "1% solution"). The solution was administered subcutaneously into the right foot pad of each rat. Six hours after the administration, a 1% solution of carrageenan was administered subcutaneously as an irritating agent into the right foot pad of the rat in a dose of 0.1 ml/animal. The volume of the right foot pad was measured before and 4 hours after the administration of carrageenan. The rate of edema inhibition (hereinafter referred to as "inhibitory rate") by each test agent was calculated from the obtained measurements and thus the inhibitory effect on edema was evaluated.
# as §2, §3, §4, §5, §6, §7, §8, §9, §10, §11, §12, §13, §14
# [4] = system: carrageenan-induced edema; assay: Test Example 4: inhibitory effect on carrageenan-induced edema, various acid anti-inflammatory agents (Table 5); format: in vivo, Wister male rats; settings: dose 4 mg/kg, single agent
# Procedure: as §1, §2, §3, §4, §5, §6, §7, §8, §9, §10, §11, §12, §13, §14
# The inhibitory effect on carrageenan-induced edema was investigated with respect to combined agents of sodium hyaluronate (molecular weight: 8 × 10^5) and various acid anti-inflammatory agents.
# as §15, with “255” for “260 g”, “5” for “7”, “Six” for “Sixteen”, “carrageenen” for “carrageenan”
# [5] = system: carrageenan-induced edema; assay: Test Example 2: inhibitory effect on carrageenan-induced edema, sodium hyaluronates of different molecular weights (Table 3); format: in vivo, Wister male rats; settings: dose 4.0 mg/kg
# Procedure: as §1, §2, §3, §4
# The inhibitory effect on carrageenan-induced edema was investigated as to combined agents of various grades of sodium hyaluronates having different molecular weights with diclofenac sodium.
# Wister male rats weighing 230 to 265 g (6 weeks old) were preliminarily bred for not less than 1 week. Eight rats were used in one group. A 1% solution of each test agent shown in Table 3 was administered subcutaneously into the right foot pad of each rat. Six hours after the administration, a 1% solution of carrageenan was administered subcutaneously as an irritating agent into the right foot pad of the rat in a dose of 0.1 ml/animal. The volume of the right foot pad was measured before and 4 hours after the administration of carrageenan. Then the inhibitory effect on edema was evaluated in the same way as in Test Example 1.
# [6] = system: carrageenan-induced edema; assay: Test Example 3: inhibitory effect on carrageenan-induced edema, varied ratio of diclofenac sodium to sodium hyaluronate (Table 4); format: in vivo, Wister male rats; settings: dose 4 mg/kg; HA molecular weight 8 × 10^5
# Procedure: as §1, §2, §3, §4
# The inhibitory effect on carrageenan-induced edema was investigated with respect to combined agents of sodium hyaluronate (molecular weight: 8 × 10^5) and diclofenac sodium wherein the ratio of diclofenac sodium to sodium hyaluronate varied.
# Wister male rats weighing 235 to 260 g (6 weeks old) were preliminarily bred for not less than 1 week. Eight rats were used in one group. […] The volume of the right foot pad was measured before and 4 hours after the administration of carrageenen. Then, the inhibitory effect on edema was evaluated in the same way as in Test Example 1.
# ICR mice = assay: Test Example 5: toxicity, number of dead mice 72 hours after subcutaneous administration (Table 6); format: in vivo; settings: dose 40 mg/kg s.c., 5 mice per group
# Procedure: After preliminary breeding of mail ICR mice 5 weeks old weighing 23 to 28 g (5 mice per one group) for one week, a 1% solution of each test agent shown in Table 6 wa subcutaneously administered to the mice. The number of dead mice was counted 72 hours after the administration.
# The doses of the test agent used in this test were about ten times those used in Test Example 1.
# The molecular weight of sodium hyaluronate is 8 × 10^5. The
# doses in Table 6 mean the amounts (mg) administered per kg body weight.
# The dose values, to which the mark "+" is attached, as to the combined
# agents means the amounts of antiinflammatory agent added to 40 mg/kg of
# sodium hyaluronate (HA).
# [7] = dose 4.0 mg/kg, s.c. foot pad, single agent, 4 h after carrageenan
molecule,measurement,setting,value
O=C(O)Cc1ccccc1Nc1c(Cl)cccc1Cl [Diclofenac sodium],curative effect (in words),[1],some curative effect
same,Inhibitory rate (damage to the movable range of joint),[1],17.3%
same,Inhibitory rate (edema),[2]; dose 3.0 mg/kg,9.7%
same,Inhibitory rate (edema),[3]; [7],16.9%
O=C([O-])c1ccccc1O.[Na+] [Sodium salicylate],Inhibitory rate (edema),"[3]; rat, in vivo, sc, 50 mg/kg",46.6%
C[C@]12C=CC(=O)C=C1CC[C@@H]1[C@@H]2[C@@H](O)C[C@@]2(C)[C@H]1CC[C@]2(O)C(=O)CO [Prednisolone],Inhibitory rate (edema),"[3]; dose 0.5 mg/kg, s.c. foot pad, single agent, 4 h after carrageenan",21.7%
CC(C)Cc1ccc(C(C)C(=O)O)cc1 (stereo not drawn) [Ibuprofen],Inhibitory rate (edema),[3]; [7],18.2%
CC(=O)Oc1ccccc1C(=O)O [Aspirin],Inhibitory rate (edema),[4],14.6%
CC(C(=O)O)c1ccc2c(c1)Cc1cccnc1O2 (stereo not drawn) [Pranoprofen],Inhibitory rate (edema),[4],39.0%
Cc1ccc(C(=O)c2ccc(CC(=O)O)n2C)cc1 [Tolmetin],Inhibitory rate (edema),[4],25.1%
C=CCOc1ccc(CC(=O)O)cc1Cl [Alclofenac],Inhibitory rate (edema),[4],22.9%
"CCCCC1C(=O)N(c2ccccc2)N(c2ccccc2)C1=O [Phenylbutazon, Phenylbutazone]",Inhibitory rate (edema),[3]; [7],46.1%
Sodium hyaluronate [Sodium hyaluronate (HA)],Inhibitory rate (edema),[5]; molecular weight of HA 28 × 10^4,-36.4%
same,Inhibitory rate (edema),[5]; molecular weight of HA 58 × 10^4,17.9%
same,Inhibitory rate (edema),[5]; molecular weight of HA 80 × 10^4,29.9%
same,Inhibitory rate (edema),[5]; molecular weight of HA 210 × 10^4,43.2%
same,Inhibitory rate (edema),[6],25.9%
same,curative effect (in words),[1],some curative effect
same,Inhibitory rate (damage to the movable range of joint),[1],24.5%
same,Inhibitory rate (edema),[2]; dose 4.0 mg/kg,30.0%
same,Number of dead mice,ICR mice,0
same,Inhibitory rate (edema),[4],23.9%
same,Inhibitory rate (edema),[3]; [7],23.5%
CN1C(C(=O)Nc2ccccn2)=C(O)c2ccccc2S1(=O)=O [Piroxicam],Inhibitory rate (edema),[3]; [7],34.6%
Cc1cccc(Nc2ccccc2C(=O)O)c1C [Mefenamic acid],Inhibitory rate (edema),[4],34.2%
COc1ccc2c(c1)c(CC(=O)O)c(C)n2C(=O)c1ccc(Cl)cc1 [Indometacin],Inhibitory rate (edema),[2]; dose 3.0 mg/kg,20%
same,Inhibitory rate (edema),"[3]; dose 1.2 mg/kg, s.c. foot pad, single agent, 4 h after carrageenan",12.9%
